# Where a SMILES comes first, the peptide text is derived from it. The star is where a group is joined. Cbz = O=C(OCc1ccccc1)*
# T1: Flag-ERαΔAD (Homo sapiens, UniProt P03372)
# T1 construct: ERαΔAD (1-534) consisting of amino acids 1 through 534; expressed in transfected cells; host or cells: 293 cells
# T1 sequence (P03372 1-534): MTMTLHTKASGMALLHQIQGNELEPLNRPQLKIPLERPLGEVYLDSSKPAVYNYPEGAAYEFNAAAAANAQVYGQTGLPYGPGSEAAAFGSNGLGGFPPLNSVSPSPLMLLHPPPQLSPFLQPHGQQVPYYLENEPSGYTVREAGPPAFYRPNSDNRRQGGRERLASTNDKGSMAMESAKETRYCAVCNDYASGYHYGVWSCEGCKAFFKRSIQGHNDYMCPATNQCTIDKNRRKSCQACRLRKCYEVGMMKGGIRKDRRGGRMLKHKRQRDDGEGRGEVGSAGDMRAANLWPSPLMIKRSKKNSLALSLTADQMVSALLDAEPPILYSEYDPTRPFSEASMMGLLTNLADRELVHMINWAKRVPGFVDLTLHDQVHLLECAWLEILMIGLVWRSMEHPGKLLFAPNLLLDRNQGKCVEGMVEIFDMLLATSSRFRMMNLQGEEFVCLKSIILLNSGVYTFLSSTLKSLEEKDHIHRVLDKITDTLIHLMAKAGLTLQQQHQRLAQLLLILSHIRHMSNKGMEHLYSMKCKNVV
# T2: ERα (Homo sapiens, UniProt P03372)
# T2 sequence (P03372 1-595): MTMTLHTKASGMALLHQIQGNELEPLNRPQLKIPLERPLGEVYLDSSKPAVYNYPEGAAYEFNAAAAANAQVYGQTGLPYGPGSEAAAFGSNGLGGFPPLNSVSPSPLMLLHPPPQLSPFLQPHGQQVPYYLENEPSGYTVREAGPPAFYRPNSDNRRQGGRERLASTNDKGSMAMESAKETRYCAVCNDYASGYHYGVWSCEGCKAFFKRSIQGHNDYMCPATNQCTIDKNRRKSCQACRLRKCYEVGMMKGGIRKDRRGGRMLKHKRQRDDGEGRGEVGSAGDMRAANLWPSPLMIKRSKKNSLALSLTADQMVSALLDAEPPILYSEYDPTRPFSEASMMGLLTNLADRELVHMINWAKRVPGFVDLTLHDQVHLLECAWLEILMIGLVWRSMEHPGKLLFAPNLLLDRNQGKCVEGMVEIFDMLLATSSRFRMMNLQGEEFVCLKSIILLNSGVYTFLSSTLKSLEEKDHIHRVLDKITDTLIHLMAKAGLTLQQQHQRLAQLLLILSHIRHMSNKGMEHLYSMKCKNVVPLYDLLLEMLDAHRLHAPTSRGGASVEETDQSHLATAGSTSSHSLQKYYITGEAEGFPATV
# T3: ERα and CHIP (Homo sapiens, UniProt P03372)
# T3 sequence (P03372 1-595): T2 sequence (P03372 1-595)
# T4: estrogen receptor alpha (ERα), not bound to a ligand, P03372
# T4 chain: T2 sequence (P03372 1-595)
# B1: CHIP (carboxyl-terminus of Hsc70 interacting protein) (protein)
# chain: MKGKEEKEGGARLGAGGGSPEKSPSAQELKEQGNRLFVGRKYPEAAACYGRAITRNPLVAVYYTNRALCYLKMQQHEQALADCRRALELDGQSVKAHFFLGQCQLEMESYDEAIANLQRAYSLAKEQRLNFGDDIPSALRIAKKKRWNSIEERRIHQESELHSYLSRLIAAERERELEECQRNHEGDEDDSHVRAQQACIEAKHDKYMADMDELFSQVDEKRKKRDIPDYLCGKISFELMREPCITPSGITYDRKDIEEHLQRVGHFDPVTGSPLTQEQFIPNLAMKEVIDAFISENGWVEDY
# How the values were obtained:
# [1] = biological target: T5, estrogen receptor alpha (ERα) (Homo sapiens, UniProt P03372); test: Amount of ERα in MCF-7 cell nucleus extracts by Western blotting (Test Example 1); format: cell-based; settings: MCF-7 cells, MG132 at 1 μM, both with and without estrogen, FIG. 1(b) lanes 3 and 4
# T5 construct: ERα was first purified from MCF-7 cell nucleus extract by immune precipitation; endogenous in cells; host or cells: MCF-7 cells
# Experimental: (§1) HeLa cells, human breast cancer-derived MCF-7 cells and human fetal kidney-derived 293 cells were cultured at 37° C. in Dulbecco's modified Eagle's medium (DMEM) containing 10% FCS in humidified air containing 5% (partial pressure) carbon dioxide gas.
# 10 μg of each extract of MCF-7 cells and 293 cells was isolated by 8% or 10% SDS-PAGE, and transferred to a nitrocellulose membrane. This membrane was incubated for 1 hour in a blocking solution of 1% BSA (bovine serum albumin) and 5% skim milk added to 25 mM tris-buffered saline containing 0.02% Tween20 (T-TBS), and then reacted with the respective antibodies for 1 hour at 25° C. After being washed 3 times for 10 minutes each in 25° C. T-TBS, the membranes were incubated for 1 minute at 25° C. with peroxidase-bound goat anti-mouse antibodies. Protein that reacted with the antibodies was made visible with an Amersham Pharmacia high-sensitivity chemical luminescence detection system (ECL).
# ERαΔAD = format: cell-based, human; settings: 293 cells, 1 μM MG132, FIG. 2 lanes 2 and 4
# Experimental: as §1
# (§2) The target DNA was diluted with 100 μL of OptiMEM medium (Life Technologies, Inc.). The amount of DNA was adjusted to a total of 1 μg by addition of blank vector. 10 μL of lipofectamine reagent (Life Technologies, Inc.) was diluted in the same way with 100 μL of OptiMEM medium. After being left at room temperature for 5 minutes, the two liquids were mixed and left for an additional 20 minutes to form a complex. This mixture was then dripped directly onto cells seeded on 12-well plates and cultured to 40-50% confluence in DMEM containing 0.2% FCS treated with activated charcoal, and transfection was performed. 6 hours after transfection normal medium was substituted, and after 24 hours' further culture the ligand was added.
# 10 μg of each extract of MCF-7 cells and 293 cells was isolated by 8% or 10% SDS-PAGE, and transferred to a nitrocellulose membrane. […] Protein that reacted with the antibodies was made visible with an Amersham Pharmacia high-sensitivity chemical luminescence detection system (ECL). […]
# Flag-ERαΔAD = biological target: T1, Flag-ERαΔAD; test: Ubiquitination of Flag-ERαΔAD expressed in 293 cells, immune precipitation and anti-ubiquitin Western blotting; format: cell-based; settings: no estrogen added but MG132 added, FIG. 3 lane 3
# Experimental: About 50 μg of MCF-7 cell nucleus extract or 293 cell nucleus extract was incubated for 1 hour at 4° C. in 25 mM tris-buffered saline containing 0.1% Tween20 (T-TBS) together with 50 μg of either glutathione sepharose beads or anti-Flag tag antibody beads (Santa Cruz Biotechnology). Beads to which protein had bound were washed 4 times with 25 mM tris-buffered saline containing 0.1% Tween20 and centrifuged for 1 minute at 5000 rpm, and the beads were collected. Protein was eluted from the beads by boiling in loading buffer.
# (§3) Western blotting using the respective antibodies was accomplished by well-known methods (Yanagisawa, J. et al, Molecular Cell (2002) March, 9(3):553-562) with some alterations. 10 μg of each extract of MCF-7 cells and 293 cells was isolated by 8% or 10% SDS-PAGE, and transferred to a nitrocellulose membrane. This membrane was incubated for 1 hour in a blocking solution of 1% BSA (bovine serum albumin) and 5% skim milk added to 25 mM tris-buffered saline containing 0.02% Tween20 (T-TBS), and then reacted with the respective antibodies for 1 hour at 25° C. After being washed 3 times for 10 minutes each in 25° C. T-TBS, the membranes were incubated for 1 minute at 25° C. with peroxidase-bound goat anti-mouse antibodies. Protein that reacted with the antibodies was made visible with an Amersham Pharmacia high-sensitivity chemical luminescence detection system (ECL).
# [2] = tested on: ERα, ERα(V364E), ERα(C447A), ERαΔAD or ERα(L540Q); test: Amount of normal and mutant ERα protein in 293 cells with proteasome inhibitor (Test Example 8, FIG. 11); format: cell-based, human; settings: MG132 added to the cells, FIG. 11 lanes 1 through 5
# Experimental: CHIP or CHIPΔUbox (a mutant having the ubiquitin ligase activity removed) were made to be expressed in cells already co-expressing normal ERα and a dominant negative mutant of ERα, and the transcriptional activation ability of ERα was measured. […] The amount of ERα in the cell nucleus extract was measured at the same time by Western blotting. ERα(V364E), ERα(C447A), ERαΔAD and ERα(L540Q) were used as the dominant negative mutants of ERα. […] ERαΔAD is a helix 12 deletion mutant, while ERα(L540Q) is a helix 12 single-residue substitution mutant, and the transcriptional activity of both is low because they can no longer bind to transcriptional activation factors. ERαΔAD and ERα(L540Q) are not temperature sensitive.
# The amount of protein was also slightly lower in the case of ERαΔAD (See FIG. 11 lane 4).
# ERα = biological target: T2, ERα; settings: 293 cells, 24 hours, 1 μM OHT or 100 nM ICI (or estrogen), FIG. 7, FIGS. 8(a) and (b)
# Experimental: as §3
# ERα and CHIP = biological target: T3, ERα and CHIP; settings: 293 cells, 24 hours, 10 nM estrogen, 1 μM tamoxifen (OHT) or 100 nM fulvestrant (ICI), FIG. 6
# Experimental: as §2
# GST pull-down was performed by well-known methods (Yanagisawa, J. et al, Molecular Cell (2002) March, 9(3):553-562). […]
# Western blotting using the respective antibodies was accomplished by well-known methods (Yanagisawa, J. et al, Molecular Cell (2002) March, 9(3):553-562) with some alterations. […] Protein that reacted with the antibodies was made visible with an Amersham Pharmacia high-sensitivity chemical luminescence detection system (ECL). […]
# [3] = biological target: T4, estrogen receptor alpha (ERα), not …
molecule,measurement,setting,value
CC(C)C[C@@H](C=O)NC(=O)[C@H](CC(C)C)NC(=O)[C@H](CC(C)C)NC(=O)OCc1ccccc1 [MG132] (Cbz-Leu-Leu-Leu-aldehyde),amount of ERα,[1],increased dramatically
same,degradation of ERαΔAD,ERαΔAD,inhibited
same,ubiquitinated ERαΔAD (Flag-ERαΔAD-Ub),Flag-ERαΔAD,strong accumulation of a polyubiquitin protein
same,amount of expression of mutant ERα versus normal ERα,[2],no difference between the various mutants and normal ERα
C[C@]12CC[C@@H]3c4ccc(O)cc4C[C@@H](CCCCCCCCC[S+]([O-])CCCC(F)(F)C(F)(F)F)[C@H]3[C@@H]1CC[C@@H]2O (some centres unmarked) [fulvestrant],degradation of ERα by CHIP,ERα,block degradation of ERα by CHIP
same,co-precipitation of ERα with CHIP,ERα and CHIP,co-precipitated with CHIP only when cultured without the addition of a ligand
B1,amount of degradation of ERα measured by Western blotting,[3],"both ERαΔAD and ERα were strongly degraded when estrogen was not added (see FIG. 7, lane 3). This degradation increased when the expressed amount of CHIP was increased"
same,amount of degradation of ERαΔAD measured by Western blotting,"ERαΔAD, P03372","both ERαΔAD and ERα were strongly degraded when estrogen was not added (see FIG. 7, lane 3). This degradation increased when the expressed amount of CHIP was increased"
